Measured values published in PMC7313537 (PLoS ONE, 2020).

Legend:
[1] = test system: J82; experiment: Cell viability assay (CellTiter-Glo); type: cell-based; conditions: Homo sapiens, Bladder, lacking FGFR alterations
[2] = molecular target: CLK3 (Homo sapiens, UniProt P49761); experiment: Enzyme selectivity panel; type: biochemical; conditions: 1 mM ATP
Method: (§2) The kinase assays were carried out at room temperature in HEPES 50 mM, pH 7.0, NaN3 0.02%, BSA 0.01%, Orthovanadate 0.1 mM, DTT 1 mM, MgCl2 10 mM in a final volume of 10 µL. Test compounds were transferred to the plate wells by ECHO liquid handler (Labcyte, San Jose, CA) with 0.5% dimethyl sulfoxide (DMSO) in the final assay. Peptide/kinase mixtures were diluted in the appropriate enzymatic buffer and 5µL of the mixture was added to a 384-well small volume black plate. Reactions were initiated by the addition of 5 µL ATP in reaction buffer, the final reaction mixture consisted of 500 nM peptide substrate, 1 mM ATP, and appropriate amount of specific kinase. […] The plates were then sealed and centrifuged at 1800 rpm for 2 minutes. […] Half maximal inhibitory concentration (IC50) determination was performed by fitting the curve of percent control activity versus the log of the compound concentration using the GraphPad Prism 6.0 software.

[3] = molecular target: AURKA (Homo sapiens, UniProt O14965); experiment: Enzyme selectivity panel; type: biochemical; conditions: 1 mM ATP
Method: as §2

[4] = Caco-2 permeability; type: in vitro ADME; conditions: human, Caco-2; A–B at 50 μM
Method: (§1) The Caco-2 monolayers were incubated at 37°C, with ambient humidity, and CO2 for the duration of the transport assay. […] The apical volume was 0.2 mL and the basolateral volume was 0.6 mL. The incubation period was 120 minutes. At the end of the incubation period, 0.1 mL of sample was removed from the receiver side and an equal volume of acetonitrile was added for protein precipitation. After centrifugation, the supernatants were collected for analysis. Nadolol and metoprolol were included as low and high permeability comparators, respectively. Trans-epithelial electrical resistance was measured to ensure the integrity of the cell monolayers. Caco-2 cell monolayers with trans-epithelial electrical resistance values ≥300 Ω•cm2 were used for transport experiments.

[5] = test system: Caco-2 cell monolayers; experiment: Caco-2 permeability; type: in vitro ADME; conditions: A–B at 50 μM
Method: as §1

[6] = molecular target: T1, SRC (Homo sapiens, UniProt P12931); experiment: Enzyme selectivity panel; type: biochemical; conditions: 1 mM ATP
T1 construct: purchased In-house HTRF panel (56 kinases) and PerkinElmer (161-kinase panel)
Method: as §2

[7] = molecular target: T2, SGK1 (Homo sapiens, UniProt O00141); experiment: Enzyme selectivity panel; type: biochemical; conditions: 1 mM ATP
T2 construct: purchased In-house HTRF panel (56 kinases) and PerkinElmer (161-kinase panel)
Method: as §2

[8] = test system: KG1 (FGFROP2-FGFR1 fusion positive) AML model; experiment: KG1 xenograft efficacy; conditions: 0.3 mg/kg once daily, oral, 14 days; P < 0.05
Method: The inoculation was performed subcutaneously on the right flank. The treatment of tumor bearing mice was started 7 days after tumor inoculation.

[9] = Pharmacokinetic analyses; type: in vivo, beagle dogs; conditions: male dog
Method: The i.v. formulation in rats was 5% dimethylacetamide (DMAC) and 25% sulfobutyl ether β-cyclodextrin in acidified saline (pH 3). The i.v. formulation in dogs and monkeys was 5% DMAC and 20% sulfobutyl ether β-cyclodextrin in saline. The oral formulation in all species was 5% DMAC in 0.5% methylcellulose aqueous solution. For rats, blood samples were collected at predose, 5 (i.v. dosing only), 15, and 30 minutes, and 1, 2, 4, 6, 8, and 24 hours. For dogs, blood samples were collected at predose, 2.5 and 5 (i.v. dosing only), 15, and 30 minutes, and 1, 2, 3, 4, 6, 8, 12, and 24 hours postdose. For monkeys, blood samples were collected at predose, 5 and 10 (i.v. dosing only), 15, and 30 minutes, and 1, 2, 3, 4, 6, 8, 12, 16, and 24 hours postdose. Collected blood samples were processed to extract plasma by centrifugation and stored at −20 °C until analysis.
The plasma was protein precipitated and the diluted supernatant was analyzed using LC/MS/MS. A standard curve was prepared in plasma from 1 to 5,000 nM and processed in the same manner as the samples. The pharmacokinetic parameters were determined using WinNonLin 6.3.

[10] = molecular target: FLT3 (Homo sapiens, UniProt P36888); experiment: Enzyme selectivity panel; type: biochemical; conditions: 1 mM ATP
Method: as §2

[11] = molecular target: IKKA (Homo sapiens, UniProt O15111); experiment: Enzyme selectivity panel; type: biochemical; conditions: 1 mM ATP
Method: as §2

[12] = molecular target: SGK3 (Homo sapiens, UniProt Q96BR1); experiment: Enzyme selectivity panel; type: biochemical; conditions: 1 mM ATP
Method: as §2

[13] = Plasma exposure after single oral dose in KATO III tumor-bearing mice; type: in vivo, mouse; conditions: single oral dose of 0.1, 1, and 10 mg/kg
Method: (A) Pharmacokinetic profile of INCB054828 in the mouse. […] (B) Pharmacokinetic-pharmacodynamic analyses in KATO III tumors. […] Plasma was subjected to analytical analysis and phospho-FGFR2 in tumor homogenate was determined by ELISA.

[14] = molecular target: CAMK2D (Homo sapiens, UniProt Q13557); experiment: Enzyme selectivity panel; type: biochemical; conditions: 1 mM ATP
Method: as §2

[15] = molecular target: ERBB4 (Homo sapiens, UniProt Q15303); experiment: Enzyme selectivity panel; type: biochemical; conditions: 1 mM ATP
Method: as §2

[16] = test system: MM1.S; experiment: Cell viability assay (CellTiter-Glo); type: cell-based; conditions: Homo sapiens, Myeloma, lacking FGFR alterations
[17] = Tolerability in xenograft studies; type: in vivo
[18] = molecular target: CHEK1 (Homo sapiens, UniProt O14757); experiment: Enzyme selectivity panel; type: biochemical; conditions: 1 mM ATP
Method: as §2

[19] = molecular target: CHEK2 (Homo sapiens, UniProt O96017); experiment: Enzyme selectivity panel; type: biochemical; conditions: 1 mM ATP
Method: as §2

[20] = test system: KMS-11 (myeloma); experiment: Cell viability assay (CellTiter-Glo); type: cell-based; conditions: Homo sapiens, IgH-FGFR3 translocation, 72 hours, read-out: Mean GI50 ± S.D.
[21] = test system: KG1a (AML); experiment: Cell viability assay (CellTiter-Glo); type: cell-based; conditions: Homo sapiens, KG-1a; FGFR1OP2-FGFR1 fusion; 72 hours; read-out: Mean GI50 ± S.D.
[22] = test system: RT-112 (bladder cancer); experiment: Cell viability assay (CellTiter-Glo); type: cell-based; conditions: Homo sapiens, FGFR3-TACC3 fusion, 72 hours, read-out: Mean GI50 ± S.D.
[23] = molecular target: CDK2 (Homo sapiens, UniProt P24941); experiment: Enzyme selectivity panel; type: biochemical; conditions: 1 mM ATP
Method: as §2

[24] = Intrinsic clearance in liver microsomes; type: in vitro ADME
Method: Aliquots were taken at 0, 10, 20, and 30 minutes and denatured with methanol. After centrifugation to remove the denatured proteins, the resulting supernatants were analyzed by LC/MS

[25] = molecular target: T3, PHKG2 (Homo sapiens, UniProt P15735); experiment: Enzyme selectivity panel; type: biochemical; conditions: 1 mM ATP
T3 construct: purchased In-house HTRF panel (56 kinases) and PerkinElmer (161-kinase panel)
T3 sequence (P15735 whole entry, species assumed): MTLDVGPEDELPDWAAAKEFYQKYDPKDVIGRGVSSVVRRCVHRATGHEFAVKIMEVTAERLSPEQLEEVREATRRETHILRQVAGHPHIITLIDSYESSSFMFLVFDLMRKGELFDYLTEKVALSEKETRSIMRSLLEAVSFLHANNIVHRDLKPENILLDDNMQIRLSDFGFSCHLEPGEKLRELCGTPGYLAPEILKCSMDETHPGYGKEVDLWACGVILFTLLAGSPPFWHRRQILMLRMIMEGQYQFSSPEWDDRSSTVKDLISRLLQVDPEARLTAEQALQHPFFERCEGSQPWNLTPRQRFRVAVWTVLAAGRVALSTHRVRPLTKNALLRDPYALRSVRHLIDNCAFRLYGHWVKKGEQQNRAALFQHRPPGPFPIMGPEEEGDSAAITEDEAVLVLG
Method: as §2

AURKA, sequence (O14965 whole entry, species assumed): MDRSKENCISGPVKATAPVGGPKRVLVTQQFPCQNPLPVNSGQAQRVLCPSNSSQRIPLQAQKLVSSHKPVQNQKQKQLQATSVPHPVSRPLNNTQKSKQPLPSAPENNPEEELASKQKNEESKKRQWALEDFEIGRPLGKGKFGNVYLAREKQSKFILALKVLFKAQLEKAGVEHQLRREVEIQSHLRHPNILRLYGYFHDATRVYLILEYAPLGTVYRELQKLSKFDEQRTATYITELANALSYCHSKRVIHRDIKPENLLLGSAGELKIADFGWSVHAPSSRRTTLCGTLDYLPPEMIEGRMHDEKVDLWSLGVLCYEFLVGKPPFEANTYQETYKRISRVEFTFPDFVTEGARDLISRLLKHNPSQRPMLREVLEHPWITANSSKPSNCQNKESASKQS
FLT3, sequence (P36888 27-993, species assumed): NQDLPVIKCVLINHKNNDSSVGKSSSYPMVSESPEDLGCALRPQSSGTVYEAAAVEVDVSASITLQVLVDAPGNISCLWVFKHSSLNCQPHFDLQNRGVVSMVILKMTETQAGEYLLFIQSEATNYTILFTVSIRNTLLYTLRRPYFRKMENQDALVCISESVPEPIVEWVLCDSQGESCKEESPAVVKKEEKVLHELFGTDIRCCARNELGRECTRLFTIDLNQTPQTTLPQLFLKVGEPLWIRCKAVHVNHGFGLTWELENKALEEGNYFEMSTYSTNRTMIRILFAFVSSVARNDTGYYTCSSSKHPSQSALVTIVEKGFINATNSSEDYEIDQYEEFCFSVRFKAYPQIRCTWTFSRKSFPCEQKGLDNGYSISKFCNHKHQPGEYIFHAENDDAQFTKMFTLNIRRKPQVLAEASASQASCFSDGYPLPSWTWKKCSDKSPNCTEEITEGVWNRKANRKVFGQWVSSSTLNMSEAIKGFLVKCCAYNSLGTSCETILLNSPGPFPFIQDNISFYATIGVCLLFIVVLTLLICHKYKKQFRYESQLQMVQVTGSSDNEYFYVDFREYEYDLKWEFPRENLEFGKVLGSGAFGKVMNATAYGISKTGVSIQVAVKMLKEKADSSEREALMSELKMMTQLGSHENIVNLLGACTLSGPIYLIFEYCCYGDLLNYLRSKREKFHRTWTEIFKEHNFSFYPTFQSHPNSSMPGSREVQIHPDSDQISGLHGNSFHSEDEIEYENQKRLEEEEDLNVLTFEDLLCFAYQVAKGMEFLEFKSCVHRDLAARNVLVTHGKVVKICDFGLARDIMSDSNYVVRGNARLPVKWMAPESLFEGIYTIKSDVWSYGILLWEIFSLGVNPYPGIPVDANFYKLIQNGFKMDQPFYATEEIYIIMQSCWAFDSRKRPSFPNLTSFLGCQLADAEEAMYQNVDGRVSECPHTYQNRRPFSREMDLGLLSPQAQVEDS
IKKA, sequence (O15111 whole entry, species assumed): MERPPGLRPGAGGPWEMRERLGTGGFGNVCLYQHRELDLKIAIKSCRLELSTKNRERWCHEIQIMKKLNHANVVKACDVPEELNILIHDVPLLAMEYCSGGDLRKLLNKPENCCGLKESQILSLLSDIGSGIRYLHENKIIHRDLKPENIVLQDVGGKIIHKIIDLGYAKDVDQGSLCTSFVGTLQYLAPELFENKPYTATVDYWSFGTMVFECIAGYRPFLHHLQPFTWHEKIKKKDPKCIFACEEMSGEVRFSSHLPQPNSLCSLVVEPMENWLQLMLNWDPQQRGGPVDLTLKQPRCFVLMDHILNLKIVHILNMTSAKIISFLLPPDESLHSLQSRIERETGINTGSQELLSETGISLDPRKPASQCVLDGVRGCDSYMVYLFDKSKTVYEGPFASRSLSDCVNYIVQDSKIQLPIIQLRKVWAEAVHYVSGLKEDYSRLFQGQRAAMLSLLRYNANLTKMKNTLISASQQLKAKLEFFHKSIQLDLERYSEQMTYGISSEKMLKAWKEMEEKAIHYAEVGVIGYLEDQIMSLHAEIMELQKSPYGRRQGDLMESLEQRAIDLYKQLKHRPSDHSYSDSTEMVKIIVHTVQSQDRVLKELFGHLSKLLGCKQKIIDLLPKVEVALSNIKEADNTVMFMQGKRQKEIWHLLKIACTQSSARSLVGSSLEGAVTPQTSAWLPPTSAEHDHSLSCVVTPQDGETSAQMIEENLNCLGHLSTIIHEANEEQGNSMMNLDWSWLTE
CHEK2, sequence (O96017 whole entry, species assumed): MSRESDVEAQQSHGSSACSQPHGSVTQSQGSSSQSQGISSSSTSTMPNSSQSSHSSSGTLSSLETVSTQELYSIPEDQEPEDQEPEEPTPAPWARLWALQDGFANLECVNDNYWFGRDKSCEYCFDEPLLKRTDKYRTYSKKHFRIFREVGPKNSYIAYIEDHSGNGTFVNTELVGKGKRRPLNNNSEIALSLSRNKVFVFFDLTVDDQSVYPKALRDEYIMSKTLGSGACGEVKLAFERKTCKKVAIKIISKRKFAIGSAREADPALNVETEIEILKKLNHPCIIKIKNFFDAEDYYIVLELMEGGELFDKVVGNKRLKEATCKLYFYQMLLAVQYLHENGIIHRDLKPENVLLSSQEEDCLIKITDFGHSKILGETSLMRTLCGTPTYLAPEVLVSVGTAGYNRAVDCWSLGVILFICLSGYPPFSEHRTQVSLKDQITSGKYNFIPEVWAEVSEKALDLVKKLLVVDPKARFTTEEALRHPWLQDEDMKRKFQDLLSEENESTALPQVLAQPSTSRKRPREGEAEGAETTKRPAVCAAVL
T2 sequence (O00141 whole entry, species assumed): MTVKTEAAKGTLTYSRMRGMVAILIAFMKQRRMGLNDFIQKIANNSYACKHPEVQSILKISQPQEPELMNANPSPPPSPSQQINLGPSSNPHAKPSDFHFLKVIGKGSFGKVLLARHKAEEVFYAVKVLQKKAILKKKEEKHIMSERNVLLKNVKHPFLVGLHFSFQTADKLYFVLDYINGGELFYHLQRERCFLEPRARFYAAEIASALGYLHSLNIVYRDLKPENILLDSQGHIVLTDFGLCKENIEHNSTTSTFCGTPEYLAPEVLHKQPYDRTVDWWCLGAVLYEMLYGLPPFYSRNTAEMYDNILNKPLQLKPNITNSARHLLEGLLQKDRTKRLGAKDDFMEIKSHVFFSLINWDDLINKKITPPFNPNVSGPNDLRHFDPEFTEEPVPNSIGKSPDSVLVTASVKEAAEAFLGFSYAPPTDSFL
SGK3, sequence (Q96BR1 whole entry, species assumed): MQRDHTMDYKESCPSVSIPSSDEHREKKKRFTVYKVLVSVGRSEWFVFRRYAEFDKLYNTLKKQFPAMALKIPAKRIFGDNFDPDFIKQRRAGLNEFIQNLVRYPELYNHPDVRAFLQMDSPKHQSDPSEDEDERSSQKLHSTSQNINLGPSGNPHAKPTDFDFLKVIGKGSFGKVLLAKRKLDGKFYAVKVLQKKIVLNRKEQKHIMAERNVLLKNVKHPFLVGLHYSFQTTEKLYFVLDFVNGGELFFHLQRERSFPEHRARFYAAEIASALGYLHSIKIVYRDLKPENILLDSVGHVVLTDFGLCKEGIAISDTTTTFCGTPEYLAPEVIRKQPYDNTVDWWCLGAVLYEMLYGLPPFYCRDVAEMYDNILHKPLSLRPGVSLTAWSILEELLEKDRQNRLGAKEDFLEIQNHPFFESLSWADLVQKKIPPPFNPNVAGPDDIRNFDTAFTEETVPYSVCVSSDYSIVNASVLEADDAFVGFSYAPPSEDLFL
CLK3, sequence (P49761 whole entry, species assumed): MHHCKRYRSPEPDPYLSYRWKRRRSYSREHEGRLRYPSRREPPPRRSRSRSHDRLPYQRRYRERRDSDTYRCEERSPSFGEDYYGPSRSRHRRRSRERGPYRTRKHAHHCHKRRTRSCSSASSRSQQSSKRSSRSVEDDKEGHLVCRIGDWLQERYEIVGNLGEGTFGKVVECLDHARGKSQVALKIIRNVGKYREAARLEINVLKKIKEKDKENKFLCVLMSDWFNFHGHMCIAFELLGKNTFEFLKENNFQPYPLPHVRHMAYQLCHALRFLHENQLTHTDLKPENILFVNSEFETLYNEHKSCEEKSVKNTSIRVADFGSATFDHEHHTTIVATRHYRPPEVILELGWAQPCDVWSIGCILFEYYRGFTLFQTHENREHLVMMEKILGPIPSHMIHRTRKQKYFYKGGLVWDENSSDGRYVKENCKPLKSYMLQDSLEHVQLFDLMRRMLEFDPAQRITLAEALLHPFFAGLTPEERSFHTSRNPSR
CAMK2D, sequence (Q13557 whole entry, species assumed): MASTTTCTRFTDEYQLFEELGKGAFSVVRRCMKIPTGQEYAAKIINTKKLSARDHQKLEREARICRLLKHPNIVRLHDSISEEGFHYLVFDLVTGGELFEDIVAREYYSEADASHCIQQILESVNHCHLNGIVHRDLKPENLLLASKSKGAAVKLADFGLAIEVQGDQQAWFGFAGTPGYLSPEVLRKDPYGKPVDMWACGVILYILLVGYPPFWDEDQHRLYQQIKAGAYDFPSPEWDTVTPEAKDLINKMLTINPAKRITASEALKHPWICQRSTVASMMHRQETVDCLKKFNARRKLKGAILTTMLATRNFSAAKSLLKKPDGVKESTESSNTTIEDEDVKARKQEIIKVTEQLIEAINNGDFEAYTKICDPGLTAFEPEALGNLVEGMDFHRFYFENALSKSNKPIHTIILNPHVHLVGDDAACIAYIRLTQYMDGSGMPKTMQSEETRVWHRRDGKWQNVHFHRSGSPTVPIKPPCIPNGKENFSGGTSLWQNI

CCN1C(=O)N(c2c(F)c(OC)cc(OC)c2F)Cc2cnc3[nH]c(CN4CCOCC4)cc3c21 [INCB054828, pemigatinib]
GI50 [1]: > 5 µM | IC50 [2]: > 10 µM | IC50 [3]: > 10 µM | Papp at 120 min, 50 μM [4]: 11 ×10⁻⁶ cm/s | Caco-2 Papp [5]: moderate to high permeability | IC50 [6]: > 10 µM | IC50 [7]: > 10 µM | efficacy against subcutaneous xenograft [8]: significant efficacy | clearance ([9]; beagle, plasma, intravenous 1 mg/kg): 3.05 mL/min/kg | Cmax ([9]; beagle, plasma, oral 2 mg/kg): 1770 nM | bioavailability ([9]; beagle, plasma, oral 2 mg/kg): 98% | Vss ([9]; intravenous 1 mg/kg): 3.49 L/kg | t½ ([9]; intravenous 1 mg/kg): 15.7 h | Hepatic ER ([9]; intravenous 1 mg/kg, % of hepatic blood flow): 10% | AUC ([9]; oral 2 mg/kg): 22.1 µM·h | IC50 [10]: > 10 µM | IC50 [11]: > 10 µM | IC50 [12]: > 10 µM | plasma exposures, dose dependence [13]: dose linear | IC50 [14]: > 10 µM | IC50 [15]: > 10 µM | GI50 [16]: > 5 µM | overt toxicities ([17]; 0.3–1 mg/kg once daily, longer than 1 month): no overt toxicities were observed | tolerability (body weight changes, clinical signs) ([17]; doses up to and including 1 mg/kg, up to 42 days): well tolerated | IC50 [18]: > 10 µM | IC50 [19]: > 10 µM | GI50 [20]: 0.362 ± 0.282 µM | GI50 [21]: 0.003 ± 0.001 µM | GI50 [22]: 0.007 ± 0.003 µM | IC50 [23]: > 10 µM | Intrinsic clearance ([24]; human liver microsomes): moderate metabolic stability | CLint scaled at 1 μM ([24]; human, pH 7.4): 13.3 mL/min/kg | IC50 [25]: > 10 µM
